Reference: US20070185079A1, “Therapeutic agents I” (ASTRAZENECA AB, priority 2004, published 2007)
Blank lines part the entries; values can stand above or below the molecule they belong to.

Legend:
[1] = target: T1, human Melanin concentrating hormone receptor 1 (MCH1r) (Homo sapiens, UniProt Q99705); test: MCH1 receptor radioligand binding, membranes from CHO-K1 cells, 125I-MCH; settings: CHO-K1 cell membranes expressing human MCH1r, 30° C., 60 minutes, read-out: IC50 in human MCHr binding assay
T1 construct: expressed in transfected cells; host or cells: CHO-K1
T1 sequence (Q99705 whole entry): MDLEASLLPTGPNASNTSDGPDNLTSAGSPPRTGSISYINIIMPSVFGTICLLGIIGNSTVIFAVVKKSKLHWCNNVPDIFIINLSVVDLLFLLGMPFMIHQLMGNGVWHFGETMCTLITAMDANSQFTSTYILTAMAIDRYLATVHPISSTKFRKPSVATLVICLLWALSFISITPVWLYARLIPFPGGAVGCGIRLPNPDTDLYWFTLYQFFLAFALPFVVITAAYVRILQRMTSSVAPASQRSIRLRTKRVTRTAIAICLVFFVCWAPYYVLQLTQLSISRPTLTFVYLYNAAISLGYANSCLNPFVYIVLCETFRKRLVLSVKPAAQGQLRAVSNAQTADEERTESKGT
Experimental: MCH1 Receptor Radioligand Binding.
Assays were performed on membranes prepared from CHO-K1 cells expressing the human Melanin concentrating hormone receptor 1 (MCH1r). Assays were performed in a 96-well plate format in a final reaction volume of 200 μl per well. Each well contained 6 μg of membrane proteins diluted in binding buffer (50 mM Tris, 3 mM MgCl2, 0.05% bovine serum albumin (BSA) and the radioligand ^125I-MCH (IM344 Amersham) was added to give 10 000 cpm (counts per minute) per well. Each well contained 2 μl of the appropriate concentration of competitive antagonist prepared in DMSO and left to stand at 30° C. for 60 minutes. Non-specific binding was determined as that remaining following incubation with 1 μM MCH (Melanin concentrating hormone, H-1482 Bachem). The reaction was terminated by transfer of the reaction to GF/A filters using a Micro96 Harvester (Skatron Instruments, Norway). Filters were washed with assay buffer. Radioligand retained on the filters was quantified using a1450 Microbeta TRILUX (Wallac , Finland).
(§1) Non-specific binding was subtracted from all values determined. Maximum binding was that determined in the absence of any competitor following subtraction of the value determined for non-specific binding. Binding of compounds at various concentrations was plotted according to the equation y=A+((B−A)/1+((C/x)ˆAD))) and IC50 estimated where • A is the bottom plateau of the curve i.e. the final minimum y value • B is the top of the plateau of the curve i.e. the final maximum y value • C is the x value at the middle of the curve. This represents the log EC50 value when A+B=100 • D is the slope factor. x is the original known x values. y is the original known y values.

[2] = target: T2, rat Melanin concentrating hormone receptor 1 (MCH1r) (Rattus norvegicus, UniProt P97639); test: MCH1 receptor radioligand binding, membranes from HEK293 cells, 125I-MCH; settings: HEK293 cell membranes stably expressing rat MCH1r, room temperature, 60 minutes
T2 construct: expressed in transfected cells
T2 sequence (P97639 whole entry): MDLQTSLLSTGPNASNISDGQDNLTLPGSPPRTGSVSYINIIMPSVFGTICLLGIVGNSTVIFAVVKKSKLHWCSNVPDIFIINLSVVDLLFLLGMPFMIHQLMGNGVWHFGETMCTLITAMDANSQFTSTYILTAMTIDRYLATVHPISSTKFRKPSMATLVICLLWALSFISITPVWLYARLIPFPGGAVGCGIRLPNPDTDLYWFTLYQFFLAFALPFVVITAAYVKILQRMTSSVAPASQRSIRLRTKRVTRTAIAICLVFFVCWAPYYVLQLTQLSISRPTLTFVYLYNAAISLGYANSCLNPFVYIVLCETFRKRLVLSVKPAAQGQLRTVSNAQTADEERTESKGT
Text: as §1
Assays were also performed on membranes prepared from HEK293 cells stably expressing the rat Melanin concentrating hormone receptor 1 (MCH1r) (Lembo et al. Nature Cell Biol 1 267-271). Assays were performed in a 96-well plate format in a final reaction volume of 200 μl per well. […] Radioligand retained on the filters was quantified using a1450 Microbeta TRILUX (Wallac, Finland).

SMILES: COc1cc(N[C@H]2CCC[C@H](NCc3ccsc3)C2)nc2ccc(F)cc12 [Example 5, (1S3S)-N-(6-fluoro-4-methoxyquinolin-2-yl)-N′-(3-thienylmethyl)cyclohexane-1,3-diamine]
IC50 [1]: 26 nM

SMILES: Cc1cc(N[C@H]2CC[C@H](NCc3cn(C)c4ccccc34)C2)nc2ccc(F)cc12 [Example 6, (1S,3S)-N-(6-fluoro-4-methylquinolin-2-yl)-N′-[(1-methyl-1H-indol-3-yl)methyl]cyclopentane-1,3-diamine]
IC50 [2]: 79 nM

SMILES: COc1ccc2nc(N[C@H]3CC[C@H](NCc4ccc(-c5cccs5)s4)C3)cc(C)c2c1 [Example 16, (1S,3S)-N-(2,2′-bithien-5-ylmethyl)-N′-(6-methoxy-4-methylquinolin-2-yl)cyclopentane-1,3-diamine]
IC50 [1]: 94 nM

Next, values leading:

IC50 [1]: 560 nM
SMILES: COc1ccc2nc(N3CC4CCC(C3)C4N(C)Cc3ccsc3)cc(C)c2c1 (stereo not drawn) [Example 20, 3-(6-Methoxy-4-methylquinolin-2-yl)-N-methyl-N-(3-thienylmethyl)-3-azabicyclo [3.2.1]octan-8-amine]

IC50 [1]: 44 nM
SMILES: COc1ccc2c(C)cc(N[C@H]3C[C@@H]4C[C@H]3[C@@H](NCc3cn(C)c5ccccc35)C4)nc2c1 [Example 32, (1S,2S,4R,6S)-N-(7-methoxy-4-methylquinolin-2-yl)-N′-[(1-methyl-1H-indol-3-yl)methyl]bicyclo[2.2.1]heptane-2,6-diamine]

IC50 [1]: 830 nM
SMILES: Cc1cc(N[C@H]2CC[C@H](NCc3cn(C)c4cnccc34)C2)nc2ccc(F)cc12 [Example 35, (1S,3S)-N-(6-Fluoro-4-methylquinolin-2-yl)-N′-[(1-methyl-1H-pyrrolo[2,3-c]pyridin-3-yl)methyl]cyclopentane-1,3-diamine]
